Data set [1] deals with T1, SARS-CoV-2 M^pro (Severe acute respiratory syndrome coronavirus 2, UniProt P0DTD1). Briefly: Fast dilution experiment. In kind it is biochemical. As to conditions: 10 μM M^pro pre-incubated with 10 μM compound for 2 h at 30 °C, diluted 100-fold; compared with DMSO control.
A further data set has as its target calpain I (Homo sapiens, UniProt P07384). Nature of the data set: Host protease selectivity, FRET-based enzymatic assay: calpain I. It counts as biochemical.
Another data set deals with caspase-3 (Homo sapiens, UniProt P42574). Nature of the data set: Host protease selectivity, FRET-based enzymatic assay: caspase-3. In kind it is biochemical. As to conditions: for Inhibition of caspase-3 (in words): host protease selectivity.
Sequence of caspase-3 (P42574 29-175): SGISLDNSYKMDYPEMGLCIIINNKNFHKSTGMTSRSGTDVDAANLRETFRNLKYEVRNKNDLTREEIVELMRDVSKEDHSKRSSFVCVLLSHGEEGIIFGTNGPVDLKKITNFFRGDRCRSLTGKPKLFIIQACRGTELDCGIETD
Sequence of caspase-3 (P42574 176-277): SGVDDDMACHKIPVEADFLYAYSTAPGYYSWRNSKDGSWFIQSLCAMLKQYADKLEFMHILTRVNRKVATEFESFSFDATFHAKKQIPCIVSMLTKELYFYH
Data set [2] has as its system SARS-CoV-2. It counts as cell-based. To be noted: read-out: Antiviral EC50 against SARS-CoV-2 in Vero E6 cells.
Another data set relates to trypsin. Nature of the data set: Host protease selectivity, FRET-based enzymatic assay: trypsin. In kind it is biochemical.
The target in another data set is cathepsin B (Homo sapiens, UniProt P07858). Briefly: Host protease selectivity, FRET-based enzymatic assay: cathepsin B. In kind it is biochemical.
In another data set the target is cathepsin K (Homo sapiens, UniProt P43235). Briefly: Host protease selectivity, FRET-based enzymatic assay: cathepsin K. It counts as biochemical.
Sequence of cathepsin K (P43235 115-329): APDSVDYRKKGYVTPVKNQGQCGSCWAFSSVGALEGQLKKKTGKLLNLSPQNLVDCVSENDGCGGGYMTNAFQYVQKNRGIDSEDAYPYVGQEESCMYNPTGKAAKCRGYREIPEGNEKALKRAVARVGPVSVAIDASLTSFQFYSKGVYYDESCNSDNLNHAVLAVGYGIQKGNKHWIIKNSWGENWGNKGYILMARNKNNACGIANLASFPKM
The target of the next data set is cathepsin L (Homo sapiens, UniProt P07711). Nature of the data set: Host protease selectivity, FRET-based enzymatic assay: cathepsin L. It counts as biochemical. To be noted: for Inhibition of cathepsin L (in words): host protease selectivity.
Sequence of cathepsin L (P07711 114-333 limits assumed): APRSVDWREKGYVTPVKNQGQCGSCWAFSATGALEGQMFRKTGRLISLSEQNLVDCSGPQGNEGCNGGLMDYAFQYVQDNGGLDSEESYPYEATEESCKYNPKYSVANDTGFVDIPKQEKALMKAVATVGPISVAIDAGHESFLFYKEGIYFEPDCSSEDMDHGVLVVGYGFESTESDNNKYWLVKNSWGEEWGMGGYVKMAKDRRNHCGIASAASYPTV
Data set [3] concerns the target T1, SARS-CoV-2 M^pro. In kind it is binding. To be noted: native mass spectrometry.
Data set [4] deals with T1, SARS-CoV-2 M^pro. It counts as cell-based. As to conditions: read-out: FlipGFP M^pro assay EC50.
The target in data set [5] is T1, SARS-CoV-2 M^pro. It counts as biochemical. As to conditions: read-out: SARS-CoV-2 M^pro IC50.
For data set [6], the target named is T1, SARS-CoV-2 M^pro. Nature of the data set: Thermal shift-binding assay. To be noted: result in words.
The test system of data set [7] is SARS-CoV-2. In kind it is cell-based. As to conditions: read-out: Antiviral EC50 against SARS-CoV-2 in Calu-3 cells.

This note sets out measurements from paper PMC8672434 (Journal of the American Chemical Society, 2021).

For orientation: IC50 means the concentration that gives 50% inhibition. For orientation: EC50 means the concentration that produces a half-maximal response. For orientation: CC50 means the concentration at which the toxic effect on the cells reaches its halfway point. Read a low CC50 as harm at low concentration.

“And” between values parts separate entries of the source, which are not always exact repeats. Equal values may be shown once. Read-outs that look alike come from different tables or passages of the source.

Sequence of calpain I (P07384 whole entry): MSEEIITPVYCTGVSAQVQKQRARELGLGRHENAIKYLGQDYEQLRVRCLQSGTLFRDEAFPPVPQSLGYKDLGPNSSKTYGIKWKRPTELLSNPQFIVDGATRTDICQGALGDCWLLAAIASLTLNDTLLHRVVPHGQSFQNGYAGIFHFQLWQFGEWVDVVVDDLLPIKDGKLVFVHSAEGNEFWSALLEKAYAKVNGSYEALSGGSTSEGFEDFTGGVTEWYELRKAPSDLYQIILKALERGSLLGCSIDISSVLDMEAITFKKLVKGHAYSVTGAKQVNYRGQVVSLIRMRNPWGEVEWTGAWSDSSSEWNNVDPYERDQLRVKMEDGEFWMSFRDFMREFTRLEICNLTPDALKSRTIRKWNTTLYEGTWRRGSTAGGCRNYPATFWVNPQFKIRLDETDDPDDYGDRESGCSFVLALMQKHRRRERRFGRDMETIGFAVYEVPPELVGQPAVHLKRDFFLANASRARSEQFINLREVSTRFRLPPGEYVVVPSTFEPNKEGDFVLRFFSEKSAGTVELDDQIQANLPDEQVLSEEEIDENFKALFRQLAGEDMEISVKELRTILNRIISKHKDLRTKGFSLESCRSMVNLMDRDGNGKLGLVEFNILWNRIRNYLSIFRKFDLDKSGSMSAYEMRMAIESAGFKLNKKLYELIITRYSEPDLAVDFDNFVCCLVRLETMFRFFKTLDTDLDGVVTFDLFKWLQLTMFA
Sequence of calpain I (P04632 whole entry, further chain): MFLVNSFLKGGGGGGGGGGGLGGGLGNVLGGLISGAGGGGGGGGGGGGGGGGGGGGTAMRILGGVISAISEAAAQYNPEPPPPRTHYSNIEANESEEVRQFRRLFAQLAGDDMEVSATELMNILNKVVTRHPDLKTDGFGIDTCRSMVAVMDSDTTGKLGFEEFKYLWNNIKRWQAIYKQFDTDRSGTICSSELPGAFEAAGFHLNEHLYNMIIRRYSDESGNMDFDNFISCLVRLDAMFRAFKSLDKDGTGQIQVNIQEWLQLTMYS

In the case of `C[C@H](NC(=O)[C@@H](c1cccnc1)N(C(=O)c1ccco1)c1ccc(-c2ccccc2)cc1)c1ccccc1` [23R], the “Recovered enzymatic activity after 100-fold dilution” value at SARS-CoV-2 M^pro [1] is given as “nearly complete recovery of enzymatic activity”.
Take `CC(C)C[C@H](NC(=O)OCc1ccccc1)C(=O)N[C@@H](CC1CCNC1=O)C(O)S(=O)(=O)[O-].[Na+]` (stereo partly drawn) [GC-376, reference compound]: the “Inhibition of calpain I (in words)” value on calpain I is “potent inhibition”. The 50% inhibitory concentration (IC50) on caspase-3 (read-out: Caspase-3 IC50, FRET-based enzymatic assay) was […]; with trypsin (read-out: Trypsin IC50, FRET-based enzymatic assay) it was […]. In addition, the 50% effective concentration (EC50) in the data set with SARS-CoV-2 [2] was determined as 1.51 µM. For the same molecule, on cathepsin B, the “Inhibition of cathepsin B (in words)” value is “potent inhibition”. In addition, the “Inhibition of cathepsin K (in words)” value at cathepsin K is “potent inhibition”. Besides, the “Inhibition of cathepsin L (in words)” value on cathepsin L is recorded as “potent inhibition”.
Turning to `CC#CC(=O)N(c1ccc(-c2ccccc2)cc1)C(C(=O)N[C@@H](C)c1ccccc1)c1cccnc1` (stereo partly drawn) [Jun9-62-1], the figures for the 50% cytotoxic concentration (CC50) with Vero E6 cells and with Calu-3 cells were 18 µM and 47.8 µM, respectively.
Consider `C[C@H](NC(=O)[C@@H](c1cccnc1)N(C(=O)C(Cl)Cl)c1ccc(-c2ccccc2)cc1)c1ccccc1` [Jun9-62-2R], for which the “Inhibition of calpain I (in words)” value at calpain I is reported as “did not show potent inhibition”. Moreover, the “Mass modification of M^pro (covalent adduct)” value (from here on “Mass modification of M^pro”) at SARS-CoV-2 M^pro [3] was 482 Da. Further, on caspase-3, the “Inhibition of caspase-3 (in words)” value is reported as “did not show potent inhibition”. Moreover, the EC50 with SARS-CoV-2 [2] amounted to 0.9 µM; on SARS-CoV-2 M^pro [4] it was 0.96 µM. Moreover, in the data set with trypsin, the “Inhibition of trypsin (in words)” value is reported as “did not show potent inhibition”. Besides, at cathepsin B, the “Inhibition of cathepsin B (in words)” value is given as “did not show potent inhibition”. The “Inhibition of cathepsin K (in words)” value on cathepsin K is listed as “did not show potent inhibition”. In addition, the “Inhibition of cathepsin L (in words)” value on cathepsin L is given as “did not show potent inhibition”.
Take `C[C@H](NC(=O)[C@H](c1cccnc1)N(C(=O)C(Cl)Cl)c1ccc(-c2ccccc2)cc1)c1ccccc1` [Jun9-62-2S]: the half-maximal inhibitory concentration (IC50) on SARS-CoV-2 M^pro [5] was greater than 20 µM.
With `C[C@H](NC(=O)[C@@H](c1cccnc1)N(C(=O)C(Br)(Br)Br)c1ccc(-c2ccccc2)cc1)c1ccccc1` [Jun9-88-6R], the “Tm shift of SARS-CoV-2 M^pro upon binding” value (“Tm shift” below) on SARS-CoV-2 M^pro [6] is recorded as “stabilized”. In addition, the “Inhibition of calpain I (in words)” value on calpain I is reported as “did not show potent inhibition”. Besides, the “Mass modification of M^pro” value on SARS-CoV-2 M^pro [3] is on record as 526 Da. Moreover, the “Inhibition of caspase-3 (in words)” value at caspase-3 was “did not show potent inhibition”. The concentration for a half-maximal effect (EC50) in the data set on SARS-CoV-2 [2] is 0.58 µM. In the data set on Vero E6 cells, the half-maximal cytotoxic concentration (CC50) turned out to be 5.48 µM. For the same molecule, the “Inhibition of cathepsin B (in words)” value at cathepsin B was “did not show potent inhibition”. Also, the “Inhibition of cathepsin K (in words)” value on cathepsin K is on record as “did not show potent inhibition”. On cathepsin L, the “Inhibition of cathepsin L (in words)” value was “did not show potent inhibition”. In addition, on cathepsin L (read-out: Cathepsin L IC50, FRET-based enzymatic assay), the IC50 was 7.37 µM.
For the molecule `C[C@H](NC(=O)[C@H](c1cccnc1)N(C(=O)C(Br)(Br)Br)c1ccc(-c2ccccc2)cc1)c1ccccc1` [Jun9-88-6S], the midpoint of cytotoxicity in the data set with Vero E6 cells, the CC50, lay at 5.99 µM.
For `C[C@H](NC(=O)[C@@H](c1cccnc1)N(C(=O)C(Br)Br)c1ccc(-c2ccccc2)cc1)c1ccccc1` [Jun9-89-2R], the “Mass modification of M^pro” value on SARS-CoV-2 M^pro [3] worked out at 526 Da. Also, the half-maximal cytotoxic concentration (CC50) in the data set with Vero E6 cells was 8.94 µM. Further, the IC50 at SARS-CoV-2 M^pro [5] (FRET-based enzymatic assay) is 0.08 µM.
Regarding `C[C@H](NC(=O)[C@H](c1cccnc1)N(C(=O)C(Br)Br)c1ccc(-c2ccccc2)cc1)c1ccccc1` [Jun9-89-2S], the 50% cytotoxic concentration (CC50) in the data set with Vero E6 cells came out at 4.57 µM. Besides, on SARS-CoV-2 M^pro [5] (FRET-based enzymatic assay), the half-inhibitory concentration (IC50) worked out at 2.44 µM.
`C[C@H](NC(=O)C(c1cccnc1)N(C(=O)C(Cl)(Cl)Br)c1ccc(-c2ccccc2)cc1)c1ccccc1` (stereo partly drawn) [Jun9-89-3] had a CC50 with Vero E6 cells of 32.4 µM.
For the molecule `C[C@H](NC(=O)[C@@H](c1cccnc1)N(C(=O)C(Cl)(Br)Br)c1ccc(-c2ccccc2)cc1)c1ccccc1` [Jun9-89-4R], the “Mass modification of M^pro” value on SARS-CoV-2 M^pro [3] is 481 Da and 561 Da. The CC50 in the data set with Vero E6 cells is 8.41 µM.
In the case of `C[C@H](NC(=O)[C@@H](c1cccnc1)N(C(=O)C(Cl)Cl)c1ccc(-c2ccccc2)cc1)c1ccc(Br)cc1` [Jun9-90-3R], at SARS-CoV-2 M^pro [6], the “Tm shift” value is “stabilized”. Further, the EC50 in the data set on SARS-CoV-2 [7] was 2 µM; with SARS-CoV-2 [2], 2.07 µM.
For `C[C@H](NC(=O)[C@H](c1cccnc1)N(C(=O)C(Cl)Cl)c1ccc(-c2ccccc2)cc1)c1ccc(Br)cc1` [Jun9-90-3S], the half-inhibitory concentration (IC50) on SARS-CoV-2 M^pro [5] is greater than 20 µM.
In the case of `C[C@@H](CCc1ccccc1)NC(=O)[C@@H](c1cccnc1)N(C(=O)C(Cl)Cl)c1ccc(-c2ccccc2)cc1` [Jun9-90-4R], at SARS-CoV-2 M^pro [6], the “Tm shift” value is given as “stabilized”. In addition, the half-maximal effective concentration (EC50) in the data set with SARS-CoV-2 [2] was 1.1 µM.
